According to US12545637B2, “Extrahepatic targeted cationic lipid compound with high efficiency and low toxicity and its composition” (BEIJING YOUCARE KECHUANG PHARMACEUTICAL TECHNOLOGY CO., LTD., priority 2023, dated 2026):

Experiments:
female BALB/C mice [1] = experiment: In vivo imaging in mice of Fluc-mRNA LNP formulations (mRNA expression and duration); conditions: for average radiation intensity, 6 h / average radiation intensity, 24 h / average radiation intensity, 48 h / average radiation intensity, 7 d: Fluc-mRNA LNP intramuscular; for average radiation intensity, 6 h: 6 h after administration; for average radiation intensity, 24 h: 24 h after administration; for average radiation intensity, 48 h: 48 h after administration; for average radiation intensity, 7 d: 7 d after administration
Summary of the method: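 Female BALB/C mice (4-6 weeks, 17-19 g) received LNP carrying […] Fluc-mRNA intramuscularly. At 6h, 24 h, 48h and 7d, fluorescent imaging substrate was given intraperitoneally and after 5 minutes average radiance, as a measure of expressed protein, was imaged on an IVIS Spectrum system.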

female BALB/C mice [2] = experiment: Distribution of liposomes in mice (protein expression in liver, spleen, lung, heart and kidney); assay type: in vivo; conditions: mouse, in vivo
Experimental: The LNP formulation (prepared according to Example 4) containing […] Fluc-mRNA was injected intramuscularly into female BALB/C mice aged 4-6 weeks and weighed 17-19 g, and the mice were intraperitoneally injected with fluorescent imaging substrate at specific time points after administration (6h, 24 h, 48h and 7d), where the mice were allowed to free move for 5 minutes, and then the average radiation intensity (corresponding to fluorescence expression intensity) of the protein expression of the mRNA carried by the LNP in the mice was detected by the IVIS Spectrum small animal in vivo imaging system.
Current mRNA vaccines usually express proteins in muscle.

[3] = Detection of encapsulation efficiency, drug loading concentration and total RNA concentration (RiboGreen); assay type: physicochemical; conditions: for Drug loading concentration / Encapsulation efficiency / Total RNA concentration: LNP formulation prepared from the cationic lipid; for encapsulation efficiency higher than ALC-0315: difference vs ALC-0315; for encapsulation efficiency higher than HIMA: difference vs HIMA (HHMA); for encapsulation efficiency higher than SM-102: difference vs SM-102; for encapsulation efficiency higher than YK-009: difference vs YK-009; for encapsulation efficiency higher than compound 21: difference vs compound 21; for encapsulation efficiency higher than compound 23: difference vs compound 23; for drug loading concentration, times that of ALC-0315 / total RNA concentration, times that of ALC-0315: ratio vs ALC-0315; for drug loading concentration, times that of HIMA / total RNA concentration, times that of HIMA: ratio vs HIMA (HHMA); for drug loading concentration, times that of SM-102 / total RNA concentration, times that of SM-102: ratio vs SM-102; for drug loading concentration, times that of YK-009 / total RNA concentration, times that of YK-009: ratio vs YK-009; for drug loading concentration, times that of compound 21 / total RNA concentration, times that of compound 21: ratio vs compound 21; for drug loading concentration, times that of compound 23 / total RNA concentration, times that of compound 23: ratio vs compound 23
Summary of the method: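 Samples were diluted in 1×TE to about […], combined with TE and 0.1% Triton X-100 buffers, and held at 37 °C for 10 minutes before dye addition.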

CCCCCCCCC(CCCCCCCC)C(=O)OCCCCCCN(CCO)CCN(CCO)CCCCCCOC(=O)C(CCCCCCCC)CCCCCCCC [YK-402]
average radiation intensity, times that of ALC-0315 (female BALB/C mice [1]; 6 h): 1.75
average radiation intensity, times that of HHMA (female BALB/C mice [1]; 6 h): 2.22
average radiation intensity, times that of SM-102 (female BALB/C mice [1]; 6 h): 2.13
average radiation intensity, times that of compound 21 (female BALB/C mice [1]; 6 h): 2.45
average radiation intensity, times that of compound 23 (female BALB/C mice [1]; 6 h): 2.53
expression amount in mice, times that of YK-415 (female BALB/C mice [1]; 6 h): 12.48
expression amount in mice, times that of YK-417 (female BALB/C mice [1]; 6 h): 24.31
mRNA expression in mice, times that of YK-411 (female BALB/C mice [1]; 6 h): 251.30
average radiation intensity, times that of ALC-0315 (female BALB/C mice [1]; 24 h): 4.21
average radiation intensity, times that of HHMA (female BALB/C mice [1]; 24 h): 6.65
average radiation intensity, times that of SM-102 (female BALB/C mice [1]; 24 h): 6.47
average radiation intensity, times that of compound 21 (female BALB/C mice [1]; 24 h): 7.19
average radiation intensity, times that of compound 23 (female BALB/C mice [1]; 24 h): 7.91
expression amount in mice, times that of YK-415 (female BALB/C mice [1]; 24 h): 12.38
expression amount in mice, times that of YK-417 (female BALB/C mice [1]; 24 h): 39.95
mRNA expression in mice, times that of YK-411 (female BALB/C mice [1]; 24 h): 394.86
average radiation intensity, times that of ALC-0315 (female BALB/C mice [1]; 48 h): 8.62
average radiation intensity, times that of HHMA (female BALB/C mice [1]; 48 h): 10.37
average radiation intensity, times that of SM-102 (female BALB/C mice [1]; 48 h): 10.52
average radiation intensity, times that of compound 21 (female BALB/C mice [1]; 48 h): 10.96
average radiation intensity, times that of compound 23 (female BALB/C mice [1]; 48 h): 10.50
expression amount in mice, times that of YK-415 (female BALB/C mice [1]; 48 h): 21.90
expression amount in mice, times that of YK-417 (female BALB/C mice [1]; 48 h): 49.08
mRNA expression in mice, times that of YK-411 (female BALB/C mice [1]; 48 h): 354.61
average radiation intensity, times that of ALC-0315 (female BALB/C mice [1]; 7 d): 1.42
average radiation intensity, times that of HHMA (female BALB/C mice [1]; 7 d): 1.67
average radiation intensity, times that of SM-102 (female BALB/C mice [1]; 7 d): 1.48
average radiation intensity, times that of compound 21 (female BALB/C mice [1]; 7 d): 1.56
average radiation intensity, times that of compound 23 (female BALB/C mice [1]; 7 d): 1.63
expression amount in mice, times that of YK-415 (female BALB/C mice [1]; 7 d): 2.46
expression amount in mice, times that of YK-417 (female BALB/C mice [1]; 7 d): 4.35
mRNA expression in mice, times that of YK-411 (female BALB/C mice [1]; 7 d): 20.71
average radiation intensity, 6 h (female BALB/C mice [1]): 1470100
average radiation intensity, 24 h (female BALB/C mice [1]): 798408
average radiation intensity, 48 h (female BALB/C mice [1]): 345740
average radiation intensity, 7 d (female BALB/C mice [1]): 9940
protein expression in the liver (female BALB/C mice [2]; female, BALB/C, 6 h): reduced compared with SM-102
protein expression in the liver (female BALB/C mice [2]): had protein expression in the liver
protein expression in the spleen (female BALB/C mice [2]): had protein expression in the spleen
Drug loading concentration [3]: 37.67 µg/mL
Encapsulation efficiency [3]: 91.0%
Total RNA concentration [3]: 40.09 µg/mL
encapsulation efficiency higher than ALC-0315 [3]: 27.7%
encapsulation efficiency higher than HIMA [3]: 30.8%
encapsulation efficiency higher than SM-102 [3]: 28.1%
encapsulation efficiency higher than YK-009 [3]: 27.6%
encapsulation efficiency higher than compound 21 [3]: 33.0%
encapsulation efficiency higher than compound 23 [3]: 34.8%
drug loading concentration, times that of ALC-0315 [3]: 1.40
total RNA concentration, times that of ALC-0315 [3]: 1.06
drug loading concentration, times that of HIMA [3]: 1.15
total RNA concentration, times that of HIMA [3]: 1.10
drug loading concentration, times that of SM-102 [3]: 1.42
total RNA concentration, times that of SM-102 [3]: 1.11
drug loading concentration, times that of YK-009 [3]: 1.37
total RNA concentration, times that of YK-009 [3]: 1.04
drug loading concentration, times that of compound 21 [3]: 1.71
total RNA concentration, times that of compound 21 [3]: 1.39
drug loading concentration, times that of compound 23 [3]: 1.88
total RNA concentration, times that of compound 23 [3]: 1.29

CCCCCCCCC(CCCCCCCC)COC(=O)CCCCCN(CCCO)CCCN(CCCO)CCCCCC(=O)OCC(CCCCCCCC)CCCCCCCC [YK-423, di(2-octyldecyl) 6,6′-(propan-1,3-diyl-bis((3-hydroxypropyl)azanediyl))dihexanoate]
average radiation intensity, times that of ALC-0315 (female BALB/C mice [1]; 6 h): 1.94
average radiation intensity, times that of HHMA (female BALB/C mice [1]; 6 h): 2.46
average radiation intensity, times that of SM-102 (female BALB/C mice [1]; 6 h): 2.35
average radiation intensity, times that of compound 21 (female BALB/C mice [1]; 6 h): 2.71
average radiation intensity, times that of compound 23 (female BALB/C mice [1]; 6 h): 2.80
expression amount in mice, times that of YK-415 (female BALB/C mice [1]; 6 h): 13.81
expression amount in mice, times that of YK-417 (female BALB/C mice [1]; 6 h): 26.91
mRNA expression in mice, times that of YK-411 (female BALB/C mice [1]; 6 h): 278.19
average radiation intensity, times that of ALC-0315 (female BALB/C mice [1]; 24 h): 3.99
average radiation intensity, times that of HHMA (female BALB/C mice [1]; 24 h): 6.30
average radiation intensity, times that of SM-102 (female BALB/C mice [1]; 24 h): 6.13
average radiation intensity, times that of compound 21 (female BALB/C mice [1]; 24 h): 6.81
average radiation intensity, times that of compound 23 (female BALB/C mice [1]; 24 h): 7.49
expression amount in mice, times that of YK-415 (female BALB/C mice [1]; 24 h): 11.73
expression amount in mice, times that of YK-417 (female BALB/C mice [1]; 24 h): 37.85
mRNA expression in mice, times that of YK-411 (female BALB/C mice [1]; 24 h): 374.12
average radiation intensity, times that of ALC-0315 (female BALB/C mice [1]; 48 h): 8.73
average radiation intensity, times that of HHMA (female BALB/C mice [1]; 48 h): 10.50
average radiation intensity, times that of SM-102 (female BALB/C mice [1]; 48 h): 10.65
average radiation intensity, times that of compound 21 (female BALB/C mice [1]; 48 h): 11.10
average radiation intensity, times that of compound 23 (female BALB/C mice [1]; 48 h): 10.64
expression amount in mice, times that of YK-415 (female BALB/C mice [1]; 48 h): 22.17
expression amount in mice, times that of YK-417 (female BALB/C mice [1]; 48 h): 49.70
mRNA expression in mice, times that of YK-411 (female BALB/C mice [1]; 48 h): 359.10
average radiation intensity, times that of ALC-0315 (female BALB/C mice [1]; 7 d): 1.44
average radiation intensity, times that of HHMA (female BALB/C mice [1]; 7 d): 1.69
average radiation intensity, times that of SM-102 (female BALB/C mice [1]; 7 d): 1.50
average radiation intensity, times that of compound 21 (female BALB/C mice [1]; 7 d): 1.58
average radiation intensity, times that of compound 23 (female BALB/C mice [1]; 7 d): 1.65
expression amount in mice, times that of YK-415 (female BALB/C mice [1]; 7 d): 2.50
expression amount in mice, times that of YK-417 (female BALB/C mice [1]; 7 d): 4.42
mRNA expression in mice, times that of YK-411 (female BALB/C mice [1]; 7 d): 21.03
average radiation intensity, 6 h (female BALB/C mice [1]): 1627420
average radiation intensity, 24 h (female BALB/C mice [1]): 756472
average radiation intensity, 48 h (female BALB/C mice [1]): 350120
average radiation intensity, 7 d (female BALB/C mice [1]): 10093
Drug loading concentration [3]: 37.47 µg/mL
Encapsulation efficiency [3]: 89.7%
Total RNA concentration [3]: 41.00 µg/mL
encapsulation efficiency higher than ALC-0315 [3]: 26.4%
encapsulation efficiency higher than HIMA [3]: 29.5%
encapsulation efficiency higher than SM-102 [3]: 26.8%
encapsulation efficiency higher than YK-009 [3]: 26.3%
encapsulation efficiency higher than compound 21 [3]: 31.7%
encapsulation efficiency higher than compound 23 [3]: 33.5%
drug loading concentration, times that of ALC-0315 [3]: 1.39
total RNA concentration, times that of ALC-0315 [3]: 1.08
drug loading concentration, times that of HIMA [3]: 1.15
total RNA concentration, times that of HIMA [3]: 1.13
drug loading concentration, times that of SM-102 [3]: 1.41
total RNA concentration, times that of SM-102 [3]: 1.14
drug loading concentration, times that of YK-009 [3]: 1.36
total RNA concentration, times that of YK-009 [3]: 1.06
drug loading concentration, times that of compound 21 [3]: 1.71
total RNA concentration, times that of compound 21 [3]: 1.42
drug loading concentration, times that of compound 23 [3]: 1.87
total RNA concentration, times that of compound 23 [3]: 1.32
